Laboratory results published in patent US12527832B2, “Enriched Withania somnifera based dietary composition and a method thereof” (priority 2015, dated 2026).

Legend:
[1] = system: Swiss mice; assay: Swimming endurance test; format: in vivo; conditions: 8th day after 7 days once daily p.o.
Protocol: Extracts were given to the mice, once daily for a period of 7 days. On 8th day the mice were subjected to swimming stress by keeping them in propylene tank of dimension (37×37×30 cm), filled with water to a height of 25 cm. The […] were allowed to swim till complete exhaustion and the endpoint was taken when the animal started drowning. The mean swimming time for each group was calculated.

[2] = system: Swiss albino mice; assay: Pentobarbital induced sleep activity; format: in vivo; conditions: 1 mg/kg
Protocol: Swiss albino mice weighing 25-30 gm were used for the study.
Thirty minutes later, pentobarbital 40 mg/kg body weight was administered to each mouse to induce sleep. The onset time of sleep was recorded for all the animals. After induction of sleep, mice were placed in the inverted position and when sedation was over, the time point when the mice returned to their normal posture was noted. The time interval between dosing and the start of sleep was recorded as latency time.

[3] = system: Albino Wistar rats; assay: Anoxia stress tolerance (AST) test; format: in vivo, rat; conditions: p.o. daily
Protocol: Albino Wistar rats of either sex weighing 150-220 g were selected and divided into seven groups of six each. Doses in each group were calculated thus, only 5 mg/Kg body weight withanolide were administered to each animal. The test was conducted as per the protocol disclosed in U.S. Pat. No. 9,987,323B2.
Animals were treated as shown above for the 3 weeks. At the end of 1st, 2nd and 3rd week i.e., on 7th, 14th and 21st day 1 h after the treatment stress was induced by placing each animal individually in the hermetic vessel of 1 L capacity to record anoxia tolerance time. The time duration of entry of the animal into the hermetic vessel and the appearance of the first convulsion was taken as time of anoxia.

[4] = system: GABA receptors; assay: Expression of GABA receptors in rat glioblastoma (C6) cell line; format: cell-based; conditions: C6 cells, positive control 1 μg/mL
[5] = system: Wistar rats; assay: Carrageenan induced paw edema model; format: in vivo, rat; conditions: single p.o. dose
Protocol: Anti-inflammatory activity of Withania somnifera extracts was assessed by carrageenan induced paw edema model in rats. Wistar rats were divided into seven groups (n=5). Following treatment was given to the rats as single dose; • Group 1: Control (Received only vehicle, 1% Tween 80 v/v p.o.) • Group II: Powdered Withania somnifera plant parts minimum 0.4% withanolides—Dosage 1750 mg/kg p.o. • Group III: Withania somnifera plant extract standardized minimum 2.5% withanolides (WG2.5)—Dosage 200 mg/kg p.o. • Group IV: Withania somnifera plant extract standardized minimum 5% withanolides (WG5)—Dosage 100 mg/kg p.o. • Group V: Withania somnifera plant extract standardized minimum 10% Withanolide Glycoside (WG10)—Dosage 50 mg/kg p.o. • Group VI: Sample 2 standardized with minimum 35±3% Withanolide Glycoside (WG 35)—Dosage 14 mg/kg p.o). • Group VII: Indomethacin (10 mg/kg p.o.).
After 30 minutes of extracts 0.1 mL of carrageenan (1% in normal saline) was injected into the right hind paw of each rat. The paw volume was measured plethysmographically at 0, 0.5, 1, 2, 3, 4 and 5th hour after challenge. The percentage inhibition of edema was calculated for each group with respect to the vehicle received control group of animals.

[6] = Bioavailability of Withaferin A and Withanoside IV in animals; format: in vivo; conditions: rat plasma, p.o.; standards 15 mg/kg, WG35 500 mg/kg
Protocol: Albino rats weighing 200-220 gm of both sexes were used for the study. The rats were kept individually in polypropylene cages and maintained in a well-ventilated room under normal and uniform conditions like 12 hours light and dark cycle and at 26±2° C. Water and feed were given ad-libitum. After the acclimatization period, the animals were fasted overnight before administration of test products.
Immediately after drug administration, 0.5 ml of blood was withdrawn at 0, 0.5, 1, 1.5, 2, 4, 6, 8 and 12 hours. Plasma samples were separated and Withaferin A and Withanoside IV were detected.

[7] = rats, administered orally; cited from earlier work

SMILES: CN1C(=O)CN=C(c2ccccc2)c2cc(Cl)ccc21 [Diazepam]
- Swimming time [1]: 58.67 min
- Duration of sleep ([2]; pentobarbital 40 mg/kg): 99
- Onset time of sleep (latency time) ([2]; pentobarbital 40 mg/kg): 27 min
- Percentage decrease in onset time of sleep ([2]; vs control): 47%
- Percentage increase in duration of sleep ([2]; vs control): 74%
- Duration of anoxia stress tolerance ([3]; 1st week): 34.40 min
- Duration of anoxia stress tolerance ([3]; 2nd week): 35.1 min
- Duration of anoxia stress tolerance ([3]; 3rd week): 37.00 min

SMILES: NCCCC(=O)O [GABA, Gamma aminobutyric acid]
- Gene expression of GABA receptors, fold increase (cell control = 1.00) [4]: 1.00

SMILES: COc1ccc2c(c1)c(CC(=O)O)c(C)n2C(=O)c1ccc(Cl)cc1 [Indomethacin]
- Percentage inhibition of paw oedema ([5]; 0.5 hr): 28%
- Percentage inhibition of paw oedema ([5]; 1 hr): 65%
- Percentage inhibition of paw oedema ([5]; 2 hr): 80%
- Percentage inhibition of paw oedema ([5]; 3 hr): 86%

SMILES: CC1=C(CO)C(=O)O[C@@H]([C@@H](C)[C@H]2CC[C@H]3[C@@H]4C[C@H]5O[C@]56[C@@H](O)C=CC(=O)[C@]6(C)[C@H]4CC[C@]23C)C1 [Withaferin A]
- Withaferin A AUC (0-12 h) [6]: 30.2 ng·h/mL
- Withaferin A Cmax [6]: 28 ng/mL

SMILES: CC1=C(C)C(=O)O[C@@H]([C@](C)(O)[C@H]2CC[C@H]3[C@@H]4[C@@H]5O[C@@H]5[C@@]5(O)CC=CC(=O)[C@]5(C)[C@H]4CC[C@]23C)C1 [Withanolide A]
- Absolute bioavailability of withanolide A in plasma [7]: less than 5%

SMILES: CC1=C(CO)C(=O)O[C@@H]([C@@H](C)[C@H]2CC[C@H]3[C@@H]4CC=C5C[C@@H](O[C@@H]6O[C@H](CO[C@@H]7O[C@H](CO)[C@@H](O)[C@H](O)[C@H]7O)[C@@H](O)[C@H](O)[C@H]6O)C[C@H](O)[C@]5(C)[C@H]4CC[C@]23C)C1 [Withanoside IV]
- Withaferin A AUC (0-12 h) [6]: 18 ng·h/mL
- Withaferin A Cmax [6]: 13.5 ng/mL
- Withanoside IV AUC (0-12 h) [6]: 14 ng·h/mL
- Withanoside IV Cmax [6]: 10.2 ng/mL
